Key:
Format in all cases: in vivo
[1] = test system: Tobacco Budworm (Heliothis virescens); experiment: Tobacco budworm I (B.7a) cotton plant spray test; conditions: 96 h, 4 days after treatment, larvae on sprayed cotton plants (B.7a), read-out: mortality in comparison with untreated controls
Procedure: B.7a Tobacco Budworm (Heliothis virescens) I
(§1) The active compounds were formulated in cyclohexanone as a 10,000 ppm solution supplied in tubes. The tubes were inserted into an automated electrostatic sprayer equipped with an atomizing nozzle and they served as stock solutions for which lower dilutions were made in 50% acetone:50% water (v/v). A nonionic surfactant (Kinetic®) was included in the solution at a volume of 0.01% (v/v).
(§2) Cotton plants were grown 2 plants to a pot and selected for treatment at the cotyledon stage. Test solutions were sprayed onto the foliage by an automated electrostatic plant sprayer equipped with an atomizing spray nozzle. The plants were dried in the sprayer fume hood and then removed from the sprayer. Each pot was placed into perforated plastic bags with a zip closure. About 10 to 11 budworm larvae were placed into the bag and the bags zipped closed. Test plants were maintained in a growth room at about 25° C. and about 20-40% relative humidity for 4 days, avoiding direct exposure to fluorescent light (24 hour photoperiod) to prevent trapping of heat inside the bags. Mortality and reduced feeding were assessed 4 days after treatment, compared to untreated control plants.

[2] = test system: Cowpea Aphid (Aphis craccivora); experiment: Cowpea aphid spray test on potted cowpea plants; conditions: assessed after 72 hours, sprayed cowpea plants, read-out: mortality in comparison with untreated controls
Procedure: B.1 Cowpea Aphid (Aphis craccivora)
The active compound is dissolved at the desired concentration in a mixture of 1:1 (vol:vol) distilled water:acetone. Surfactant (Alkamuls® EL 620) is added at a rate of 0.1% (vol/vol). The test solution is prepared at the day of use.
Potted cowpea plants were colonized with approximately 50-100 aphids of various stages by manually transferring a leaf tissue cut from infested plant 24 hours before application. Plants were sprayed after the pest population has been recorded. Treated plants are maintained on light carts at about 28° C. Percent mortality was assessed after 72 hours

[3] = test system: Vetch Aphid (Megoura viciae); experiment: Vetch aphid broad bean leaf disk microtiter test; conditions: foliar, 120 h, 5 days, adult aphids on sprayed broad bean leaf disks, read-out: mortality in comparison with untreated controls
Procedure: B.6 Vetch Aphid (Megoura viciae)
For evaluating control of vetch aphid (Megoura viciae) through contact or systemic means the test unit consisted of 24-well-microtiter plates containing broad bean leaf disks.
The compounds were formulated using a solution containing 75% v/v water and 25% v/v DMSO. Different concentrations of formulated compounds were sprayed onto the leaf disks at 2.5 μl, using a custom built micro atomizer, at two replications.
After application, the leaf disks were air-dried and 5-8 adult aphids placed on the leaf disks inside the microtiter plate wells. The aphids were then allowed to suck on the treated leaf disks and incubated at about 23±1° C. and about 50±5% relative humidity for 5 days. Aphid mortality and fecundity was then visually assessed.

[4] = test system: Tobacco Budworm (Heliothis virescens); experiment: Tobacco budworm I (B.7b) cotton plant spray test; conditions: 96 h, 4 days after treatment, larvae on sprayed cotton plants (B.7b), read-out: mortality in comparison with untreated controls
Procedure: B.7b Tobacco Budworm (Heliothis virescens) I
as §1, §2

[5] = test system: Southern Armyworm (Spodoptera eridania); experiment: Southern armyworm lima bean foliar spray test; conditions: 96 h, 4 days after treatment, larvae on sprayed lima bean plants, read-out: mortality in comparison with untreated controls
Procedure: B.5 Southern Armyworm (Spodoptera eridania)
as §1
Lima bean plants (variety Sieva) were grown 2 plants to a pot and selected for treatment at the 1st true leaf stage. Test solutions were sprayed onto the foliage by an automated electrostatic plant sprayer equipped with an atomizing spray nozzle. The plants were dried in the sprayer fume hood and then removed from the sprayer. Each pot was placed into perforated plastic bags with a zip closure. About 10 to 11 armyworm larvae were placed into the bag and the bags zipped closed. Test plants were maintained in a growth room at about 25° C. and about 20-40% relative humidity for 4 days, avoiding direct exposure to fluorescent light (24 hour photoperiod) to prevent trapping of heat inside the bags. Mortality and reduced feeding were assessed 4 days after treatment, compared to untreated control plants.

[6] = test system: Orchid Thrips (Dichromothrips corbetti); experiment: Orchid thrips floral-immersion test; conditions: 72 hours after treatment, adult thrips on dipped orchid flowers, read-out: mortality in comparison with untreated controls
Procedure: B.3 Orchid Thrips (Dichromothrips corbetti)
Dichromothrips corbetti adults used for bioassay were obtained from a colony maintained continuously under laboratory conditions. For testing purposes, the test compound is diluted in a 1:1 mixture of acetone:water (vol:vol), plus 0.01% vol/vol Alkamuls® EL 620 surfactant.
Thrips potency of each compound was evaluated by using a floral-immersion technique. Plastic petri dishes were used as test arenas. All petals of individual, intact orchid flowers were dipped into treatment solution and allowed to dry. Treated flowers were placed into individual petri dishes along with about 20 adult thrips. The petri dishes were then covered with lids. All test arenas were held under continuous light and a temperature of about 28° C. for duration of the assay. After 3 days, the numbers of live thrips were counted on each flower, and along inner walls of each petri dish. The percent mortality was recorded 72 hours after treatment.

[7] = test system: Diamond Back Moth (Plutella xylostella); experiment: Diamond back moth cabbage leaf dip test; conditions: foliar, 72 hours after treatment, 3rd instar larvae on dipped cabbage leaves, read-out: mortality in comparison with untreated controls
Procedure: B.2 Diamond Back Moth (Plutella xylostella)
The active compound is dissolved at the desired concentration in a mixture of 1:1 (vol:vol) distilled water:aceteone. Surfactant (Alkamuls® EL 620) is added at a rate of 0.1% (vol/vol).The test solution is prepared at the day of use.
Leaves of cabbage were dipped in test solution and air-dried. Treated leaves were placed in petri dish eslined with moist filter paper and inoculated with ten 3rd instar larvae. Mortality was recorded 72 hours after treatment. Feeding damages were also recorded using a scale of 0-100%.

[8] = test system: Colorado Potato Beetle (Leptinotarsa decemlineata); experiment: Colorado potato beetle eggplant foliage spray test; conditions: foliar, 96 h, 4 days after treatment, larvae on sprayed eggplant foliage, read-out: mortality in comparison with untreated controls
Procedure: B.9 Colorado Potato Beetle (Leptinotarsa decemlineata)
as §1
Eggplants were grown 2 plants to a pot and were selected for treatment at the 1st true leaf stage. Test solutions were sprayed onto the foliage by an automated electrostatic plant sprayer equipped with an atomizing spray nozzle. The plants were dried in the sprayer fume hood and then removed from the sprayer. The treated foliage was then cut and removed from the pot and placed in a Petri dish lined with moistened filter pa-per. Five beetle larvae were introduced into each Petri dish and the dish was covered by a Petri dish lid. Petri dishes were maintained in a growth room at about 25° C. and about 20-40% relative humidity for 4 days, avoiding direct exposure to fluorescent light (24 hour photoperiod) to prevent trapping of heat inside the dishes. Mortality and reduced feeding were assessed 4 days after treatment, compared to untreated control plants.

[9] = test system: Boll Weevil (Anthonomus grandis); experiment: Boll weevil insect diet microtiter test; conditions: 120 h, 5 days, eggs on sprayed insect diet, read-out: mortality (egg and larval) in comparison with untreated controls
Procedure: B.8 Boll Weevil (Anthonomus grandis)
For evaluating control of boll weevil (Anthonomus grandis) the test unit consisted of 24-well-microtiter plates containing an insect diet and 20-30 A. grandis eggs.
The compounds were formulated using a solution containing 75% v/v water and 25% v/v DMSO. Different concentrations of formulated compounds were sprayed onto the insect diet at 20 μl, using a custom built micro atomizer, at two replications.
After application, microtiter plates were incubated at about 23±1° C. and about 50±5% relative humidity for 5 days. Egg and larval mortality was then visually assessed.

CCS(CC1CC1)=NC(=O)c1cc(Cl)cc(C)c1NC(=O)c1cc(C(F)(F)F)nn1-c1ncccc1Cl (stereo not drawn) [Compound 1, 2-(3-chloro-2-pyridyl)-N-[2-methyl-4-chloro-6-[(cyclopropylmethyl-ethyl-λ^4-sulfanylidene)carbamoyl]phenyl]-5-(trifluoromethyl)pyrazole-3-carboxamide]
≥ 75%: mortality at 2500 ppm [1] | mortality at 300 ppm [2] | mortality at 2500 ppm [3] | mortality at 10 ppm [4] | mortality at 1 ppm [5] | mortality at 300 ppm [6] | mortality at 300 ppm [7] | mortality at 10 ppm [8] | mortality at 2500 ppm [9]
